We go through eleven molecules from patent US10940139B2, “Compounds that interact with the Ras superfamily for the treatment of cancers, inflammatory diseases, rasopathies, and fibrotic disease” (Shy Therapeutics LLC, priority 2017, dated 2021).

Where two headings read alike, the source gives them in different places.

Assay in all cases: Ras GTP binding domain inhibition assay (labeled GTP)
Common to all, as to settings: 20 μM compound

Assay [1] has as its target KRas G12D mutant protein (Homo sapiens (Human), UniProt P01116, G12D).
The target of assay [2] is KRas Q61H mutant (Homo sapiens (Human), UniProt P01116, Q61H). In outline:
(§1)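 His-tagged KRas protein (3-10 μg/ml) was captured overnight at 4° C on nickel-coated wells in 50 mM Tris pH 7.5, 1 mM MgCl2, 1 mM DTT. Bound labeled GTP was read by fluorescence after washing.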

The target of assay [3] is KRas wild type (Homo sapiens (Human), UniProt P01116). In outline: as §1
Sequence of KRas wild type (P01116-2 other isoform, or with tags, fused parts or gaps): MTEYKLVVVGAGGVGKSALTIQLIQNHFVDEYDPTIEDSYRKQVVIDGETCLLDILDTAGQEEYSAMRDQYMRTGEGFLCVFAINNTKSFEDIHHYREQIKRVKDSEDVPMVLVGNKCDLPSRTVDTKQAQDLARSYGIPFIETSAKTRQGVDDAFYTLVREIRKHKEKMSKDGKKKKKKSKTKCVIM
For assay [4], the target named is KRas G12C mutant (Homo sapiens (Human), UniProt P01116, G12C). An outline of the steps: as §1
Sequence of KRas G12C mutant (P01116-2 other isoform, or with tags, fused parts or gaps G12C): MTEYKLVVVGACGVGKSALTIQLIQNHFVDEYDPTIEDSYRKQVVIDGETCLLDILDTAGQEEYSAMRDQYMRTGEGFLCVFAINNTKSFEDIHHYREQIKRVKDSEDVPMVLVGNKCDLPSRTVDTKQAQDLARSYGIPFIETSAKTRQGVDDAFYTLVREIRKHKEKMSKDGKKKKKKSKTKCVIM
For assay [5], the target named is KRas G12C/Q61H double mutant (Homo sapiens (Human), UniProt P01116, G12C/Q61H). An outline of the steps:
as §1

The target in assay [6] is KRas G12D/Q61H double mutant (Homo sapiens (Human), UniProt P01116, G12D/Q61H). In outline:
as §1

[7] abbreviates: KRas G12D, read-out: % Inhibition at 20 μM of K-Ras mutant and wild-type protein, KRas G12D.
[8] abbreviates: KRas Q61H, read-out: % Inhibition at 20 μM of K-Ras mutant and wild-type protein, KRas Q61H.
The mark [9] stands for this setting: KRas wild type, read-out: % Inhibition at 20 μM of K-Ras mutant and wild-type protein, KRas wild type.
Setting [10] is: KRas G12C, read-out: % Inhibition at 20 μM of K-Ras mutant and wild-type protein, KRas G12C.
Setting [11] is: KRas G12C/Q61H double mutant, read-out: % Inhibition at 20 μM of K-Ras mutant and wild-type protein, KRas G12C Q61H.
Setting [12] is: KRas G12D/Q61H double mutant, read-out: % Inhibition at 20 μM of K-Ras mutant and wild-type protein, KRas G12D Q61H.
The mark [13] stands for this setting: read-out: % Inhibition at 20 μM KRas G12D.
[14] abbreviates: read-out: % Inhibition at 20 μM KRas Q61H.
Where [15] appears, read: read-out: % Inhibition at 20 μM KRas wild type.
The mark [16] stands for this setting: read-out: % Inhibition at 20 μM KRas G12C.
[17] abbreviates: read-out: % Inhibition at 20 μM KRas G12C Q61H.
The mark [18] stands for this setting: read-out: % Inhibition at 20 μM KRas G12D Q61H.

Sequence of KRas G12C/Q61H double mutant (P01116-2 other isoform, or with tags, fused parts or gaps G12C/Q61H): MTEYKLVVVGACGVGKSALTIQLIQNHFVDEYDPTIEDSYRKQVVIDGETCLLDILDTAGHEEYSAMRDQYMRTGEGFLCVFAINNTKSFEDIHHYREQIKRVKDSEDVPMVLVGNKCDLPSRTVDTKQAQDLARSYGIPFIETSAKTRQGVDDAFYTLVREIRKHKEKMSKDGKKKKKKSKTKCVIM
Sequence of KRas G12D mutant protein (P01116-2 other isoform, or with tags, fused parts or gaps G12D): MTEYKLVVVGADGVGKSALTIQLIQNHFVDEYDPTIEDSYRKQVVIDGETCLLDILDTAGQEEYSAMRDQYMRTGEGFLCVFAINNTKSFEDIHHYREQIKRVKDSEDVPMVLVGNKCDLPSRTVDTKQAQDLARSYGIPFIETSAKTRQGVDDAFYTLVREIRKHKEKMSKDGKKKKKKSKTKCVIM
Sequence of KRas G12D/Q61H double mutant (P01116-2 other isoform, or with tags, fused parts or gaps G12D/Q61H): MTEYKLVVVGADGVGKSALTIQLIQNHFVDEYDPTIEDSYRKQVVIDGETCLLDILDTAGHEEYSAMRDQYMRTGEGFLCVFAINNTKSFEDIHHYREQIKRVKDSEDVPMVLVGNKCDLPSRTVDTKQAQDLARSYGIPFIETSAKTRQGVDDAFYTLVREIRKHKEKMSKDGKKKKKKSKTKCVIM
Sequence of KRas Q61H mutant (P01116-2 other isoform, or with tags, fused parts or gaps Q61H): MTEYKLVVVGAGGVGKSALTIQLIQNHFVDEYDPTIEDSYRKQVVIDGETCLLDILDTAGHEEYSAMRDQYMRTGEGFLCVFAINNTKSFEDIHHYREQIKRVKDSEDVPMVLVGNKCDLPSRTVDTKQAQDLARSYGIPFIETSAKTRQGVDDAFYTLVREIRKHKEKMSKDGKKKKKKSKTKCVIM

In general, inhibition refers to the percentage by which the read-out fell short of the control. For `COc1nc(-c2cn(C)cn2)nc2sc(-c3ccncc3)c(-c3ccccc3)c12` [drawing 3531], the inhibition at 20 µM in assay [1] (setting [7]) was 25 to 50%; in assay [2] (setting [8]), 25 to 50%; in assay [3] (setting [9]), 1 to 25%; in assay [4] (setting [10]), 25 to 50%; in assay [5] (setting [11]) it was 1 to 25%; in assay [6] (setting [12]), 25 to 50%.

As to `COc1ccc(CCC(=O)Nc2nc(-c3ccccn3)nc3sccc23)cn1` [drawing 3493], the inhibition at 20 µM was 51 to 75% in assay [1] (setting [7]); 76 to 100% in assay [2] (setting [8]); 25 to 50% in assay [3] (setting [9]); 25 to 50% in assay [4] (setting [10]); 51 to 75% in assay [5] (setting [11]); 51 to 75% in assay [6] (setting [12]).

`O=C(CCc1cncnc1)Nc1nc(-c2ccccn2)nc2sccc12` [drawing 2891]: the inhibition at 20 µM lay in the range of 51 to 75% in assay [1] (setting [13]); 51 to 75% in assay [2] (setting [14]); 51 to 75% in assay [3] (setting [15]); 25 to 50% in assay [4] (setting [16]); 76 to 100% in assay [5] (setting [17]); 51 to 75% in assay [6] (setting [18]).

For the molecule `Cc1sc2c(O)nc(-c3ccccn3)nc2c1C(=O)N1CCN(Cc2cccc(O)c2)CC1` [drawing 3510], the inhibition at 20 µM lay within 25 to 50% in assay [1] (setting [7]); 51 to 75% in assay [2] (setting [8]); 1 to 25% in assay [3] (setting [9]); 1 to 25% in assay [4] (setting [10]); 51 to 75% in assay [5] (setting [11]); 51 to 75% in assay [6] (setting [12]).

`CC(C)Cc1csc2c(O)nc(-c3ccccn3)nc12` [drawing 3494]: the inhibition at 20 µM in assay [1] (setting [7]) was in the range of 51 to 75%; in assay [2] (setting [8]), 76 to 100%; in assay [3] (setting [9]), 25 to 50%; in assay [4] (setting [10]), 25 to 50%; in assay [5] (setting [11]) it was 51 to 75%; in assay [6] (setting [12]) it was 51 to 75%.

`Oc1nc(-c2ccccn2)nc2c(-c3ccc4c(c3)OCO4)csc12` [drawing 2879]: the inhibition at 20 µM was in the range of 51 to 75% in assay [1] (setting [13]); 51 to 75% in assay [2] (setting [14]); 51 to 75% in assay [3] (setting [15]); 25 to 50% in assay [4] (setting [16]); 51 to 75% in assay [5] (setting [17]); 51 to 75% in assay [6] (setting [18]).

Consider `COc1cccc(-c2csc3c(O)nc(-c4ccccn4)nc23)c1` [drawing 2872], for which the inhibition at 20 µM was 76 to 100% in assay [1] (setting [13]); 1 to 25% in assay [2] (setting [14]); 51 to 75% in assay [3] (setting [15]); 25 to 50% in assay [4] (setting [16]); 1 to 25% in assay [5] (setting [17]); 25 to 50% in assay [6] (setting [18]).

For `COc1cnc(-c2cn(C)cn2)nc1O` [drawing 3512], the “% Inhibition at 20 μM of K-Ras mutant and wild-type protein, KRas G12D” value in assay [1] (KRas G12D) is “C (51-75% inhibition)”. Moreover, the “% Inhibition at 20 μM of K-Ras mutant and wild-type protein, KRas Q61H” value in assay [2] (KRas Q61H) is given as “D (76-100% inhibition)”. Besides, the “% Inhibition at 20 μM of K-Ras mutant and wild-type protein, KRas wild type” value in assay [3] (KRas wild type) is on record as “B (25-50% inhibition)”. Further, in assay [4] (KRas G12C), the “% Inhibition at 20 μM of K-Ras mutant and wild-type protein, KRas G12C” value is given as “C (51-75% inhibition)”. Moreover, in assay [5] (KRas G12C/Q61H double mutant), the “% Inhibition at 20 μM of K-Ras mutant and wild-type protein, KRas G12C Q61H” value is listed as “C (51-75% inhibition)”. Besides, the “% Inhibition at 20 μM of K-Ras mutant and wild-type protein, KRas G12D Q61H” value in assay [6] (KRas G12D/Q61H double mutant) was “C (51-75% inhibition)”.

Consider `COc1cnc(-c2cn(C)cn2)nc1O` [drawing 3496], for which the inhibition at 20 µM in assay [1] (setting [7]) fell in the range of 51 to 75%; in assay [2] (setting [8]) it was 76 to 100%; in assay [3] (setting [9]) it was 25 to 50%; in assay [4] (setting [10]), 51 to 75%; in assay [5] (setting [11]) it was 51 to 75%; in assay [6] (setting [12]), 51 to 75%.

Regarding `Nc1nc(-c2ccccn2)nc2c(-c3ccccc3)csc12` [drawing 2859], the inhibition at 20 µM was in the range of 25 to 50% in assay [1] (setting [13]); 25 to 50% in assay [2] (setting [14]); 25 to 50% in assay [3] (setting [15]); 1 to 25% in assay [4] (setting [16]); 51 to 75% in assay [5] (setting [17]); 25 to 50% in assay [6] (setting [18]).

`COc1nc(-c2ccccn2)nc2c1c(-c1ccccc1)nn2-c1ccccn1` [drawing 3540]: the inhibition at 20 µM in assay [1] (setting [7]) was in the range of 51 to 75%; in assay [2] (setting [8]) it was 51 to 75%; in assay [3] (setting [9]) it was 25 to 50%; in assay [4] (setting [10]) it was 51 to 75%; in assay [5] (setting [11]), 25 to 50%; in assay [6] (setting [12]), 51 to 75%.
